This note sets out measurements from US4994477A, “Heterocyclic renin inhibitors” (Abbott Laboratories, priority 1988, dated 1991).

As usually defined, the IC50 is the point on the concentration scale where inhibition reaches its midpoint. The low end stands for inhibition by little substance, the high end for a need for much substance.

The target of the experiment is T1, human renal renin (Homo sapiens, UniProt P00797).
T1 construct: human renal renin, free from acid proteolytic activity; from tissue; host or cells: human kidney (from the word 'renal')
T1 sequence (P00797 67-406): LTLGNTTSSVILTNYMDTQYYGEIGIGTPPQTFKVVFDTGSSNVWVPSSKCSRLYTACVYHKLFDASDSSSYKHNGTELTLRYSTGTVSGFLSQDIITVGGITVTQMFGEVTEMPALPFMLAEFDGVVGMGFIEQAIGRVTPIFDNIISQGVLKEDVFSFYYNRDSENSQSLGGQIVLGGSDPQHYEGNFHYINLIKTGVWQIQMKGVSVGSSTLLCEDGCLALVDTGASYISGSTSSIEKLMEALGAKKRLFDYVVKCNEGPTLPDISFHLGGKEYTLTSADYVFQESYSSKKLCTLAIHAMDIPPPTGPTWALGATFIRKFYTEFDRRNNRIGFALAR
The experiment is described as follows: inhibition of human renal renin in vitro, angiotensin I formed measured by radioimmunoassay. To be noted: human angiotensinogen substrate, 37 degrees C, pH 6.0. Type of experiment: biochemical. On the procedure:
At the end of the incubation, the amount of angiotensin I formed is measured by radioimmunoassay and the molar concentration required to cause 50% inhibition, expressed as the IC50, is calculated.

Compound `CC(C)C[C@H](O)[C@H](O)[C@H](CC1CCCCC1)NC(=O)[C@H](Cc1c[nH]cn1)N1Cc2c([nH]c3ccccc23)C1=O` [Example 58, (1'S,2"S,3"R,4"S)-2-[1-[N-(1-Cyclohexyl-3,4-dihydroxy-6-methyl-2-heptyl)carbamoyl]-2-(4-imidazolyl)ethyl]-1,2,3,4-tetrahydropyrrolo[3,4-b]indol-3-one] came in with an IC50 of 8.2 nM. That is a single-digit nanomolar value.

`CC(C)C[C@H](O)[C@H](O)[C@H](CC1CCCCC1)NC(=O)[C@H](Cc1c[nH]cn1)NC(=O)c1cc2ccccc2n1C` [Example 41, N-(1-Methylindolyl-2-carbonyl)-His Amide of 2(S)-Amino-1-cyclohexyl-3(R),4(S)-dihydroxy6-methylheptane] registered an IC50 of 160 nM.
